Here are results for ten compounds from patent publication EP4772510A2, “BENZAZEPINONE COMPOUND AND USE THEREOF” (HANGZHOU BIO-SINCERITY PHARMA-TECHCO., LTD., priority 2023, dated 2025).

Test [1] deals with HT-29 cells. In words: Inhibition of TNF-α-induced necroptosis of HT-29 cells (SRB method). As to conditions: Homo sapiens, HT-29, TNF-α 20 ng/mL + BV6 2 µM + Z-VAD-FMK 20 µM, 18 h. The format is cell-based, human. From the text: Example 57: Inhibition of TNF-α-Induced Necroptosis of HT-29 Cells by Compounds
• 1. Experimental reagents: McCOY's 5A culture medium, fetal bovine serum, penicillin-streptomycin, trypsin, PBS, TNF-α (MCE, HY-P7058), BV6 (MCE, HY-16701), Z-VAD-FMK (MCE, HY-16658B), SRB kit (Shanghai BestBio Biotechnology Co., Ltd., BB-4208-500T). • 2. Experimental instruments: medical low-temperature freezer (Thermo Fisher scientific, 902-ULTS), electrically heated thermostatic water bath (Shanghai Bluepard Instruments Co., Ltd., CD-420), low-speed centrifuge (ANHUI USTC Zonkia Scientific Instruments Co., Ltd, SC-3616), carbon dioxide incubator (Shanghai Bluepard Instruments Co., Ltd., BPN-150CH(UV)), inverted microscope (Olympus, CKX53), multi-functional microplate reader (Thermo Tecan, SPARK), class-II biosafety cabinet (AIRTECH, BSC-1304IIA2), and desktop cell counter (Thermo Fisher Scientific, Countess II). • 3. Cell culturing: HT-29 cells (human colon cancer cells) were cultured in a McCOY's 5A culture solution containing 10% fetal bovine serum and 1% penicillin-streptomycin solution in a 5% CO 2 at 37 °C and a saturated humidity, and culture medium changes and cell passaging were performed 3-4 times a week. • 4. […] The culture medium, trypsin, etc., were taken out from the freezer and transferred to the water bath for pre-heating. An appropriate amount of these substances was then taken for use. • (2) The old culture medium in the flask was aspirated using a sterile pipette and discarded, and the cells were washed 3 times with PBS. 1 mL of trypsin (25 cm^2 cell culture flask) was added into the flask, and the flask was gently shaken to allow the trypsin to cover all the cell surfaces. Digestion was performed in an incubator at 37 °C. After 2 min of digestion, the flask was placed under a microscope for observation. […] The mixture was gently pipetted using a pipette to homogenize the cells and thus prepare a single-cell suspension, and the cells were counted. • (5) The cells were diluted to 3 × 10^5/mL and seeded into a 96-well plate at 100 µL/well, such that there were 3 × 10^4 cells per well in the 96-well plate. The cells were incubated in a 5% CO2 incubator at 37 °C and a saturated humidity for 24 h, followed by the addition of compounds. • 4.2 Dilution and addition of compounds: • (1) TNF-α was dissolved in PBS to obtain a 100 µg/mL stock solution and aliquoted; Z-VAD-FMK was dissolved in DMSO to obtain a 10 mM stock solution and aliquoted; BV6 was dissolved in DMSO to obtain a 10 mM stock solution and aliquoted; GSK2982772 was dissolved in DMSO to obtain a 10 mM stock solution and aliquoted. One aliquot of each stock solution was stored at -20 °C for immediate use, while the remaining aliquots were stored at - 80 °C and used within their shelf life. • (2) McCOY's 5A culture solution containing TNF-α, BV6, and Z-VAD-FMK was prepared. For the positive control group and the test compound groups, the McCOY's 5A culture solution was added at 90 µL/well, and 10 µL of the culture medium containing the test compound was also added, thus making the final concentrations of TNF-α, BV6, and Z-VAD-FMK be 20 ng/mL, 2 µM, and 20 µM, respectively. For the DMSO (5‰) control group, 90 µL of the McCOY's 5A complete culture solution was added, and then 10 µL of DMSO was added, thus making the final concentration 5‰. • (3) Each target compound was three-fold diluted with a culture medium to 8 concentration gradients, with each concentration set in duplicate (10 µL/well). The final concentrations of each target compound were 1000.00/333.33/111.11/37.04/12.35/4.12/1.37/0.46 nM. • (4) The 96-well plate cultured for 24 h was taken out from the incubator, and the culture medium in the 96-well plate was carefully aspirated and discarded. A positive control group, test compound groups, and a DMSO (5‰) control group were set, and 10 µL of the corresponding compound was added to each group. […]

In test [2] the test system is U937 cells. Put plainly: Inhibition of TNF-α-induced necroptosis of U937 cells (CCK-8 assay). It counts as cell-based, human. As to conditions: Homo sapiens, U-937, TNF-α 20 ng/mL + BV6 2 µM + Z-VAD-FMK 20 µM, 18 h. From the text: Example 56: Inhibition of TNF-α-Induced Necroptosis of U937 Cells by Compounds
• 1. Experimental reagents: RPMI-1640 culture medium, fetal bovine serum, penicillin-streptomycin, TNF-α (MCE, HY-P7058), BV6 (MCE, HY-16701), Z-VAD-FMK (MCE, HY-16658B), and CCK-8 (Dalian Meilun Biotech Co., Ltd., MA0218). • 2. Experimental instruments: medical low-temperature freezer (Thermo Fisher scientific, 902-ULTS), electrically heated thermostatic water bath (Shanghai Bluepard Instruments Co., Ltd., CD-420), low-speed centrifuge (ANHUI USTC Zonkia Scientific Instruments Co., Ltd, SC-3616), carbon dioxide incubator (Shanghai Bluepard Instruments Co., Ltd., BPN-150CH(UV)), inverted microscope (Olympus, CKX53), multi-functional microplate reader (Thermo Tecan, SPARK), class-II biosafety cabinet (AIRTECH, BSC-1304IIA2), and desktop cell counter (Thermo Fisher Scientific, Countess II). • 3. Cell culturing: U937 cells (human histiocytic lymphoma cells) were cultured in an RPMI-1640 culture solution containing 10% fetal bovine serum and 1% penicillin-streptomycin solution in a 5% CO2 incubator at 37 °C and a saturated humidity. The cell culture flask was vertically placed in the incubator. A T25 culture flask was used as an example, the culture solution in the flask was 6-8 mL, and culture medium changes and cell passaging were performed 3-4 times a week. • 4. […] The culture medium was taken out from the freezer and transferred to the water bath for pre-heating. An appropriate amount of culture medium was then taken for use. • (2) The cell suspension was transferred to a 15 mL sterile centrifuge tube and centrifuged at 850 rpm for 4 min to collect U937 cells. • (3) The supernatant was carefully discarded, and an appropriate amount of culture medium was added. The mixture was gently pipetted using a pipette to homogenize the cells and thus prepare a single-cell suspension, and the cells were counted. • (4) The cells were diluted to 4 × 10^5/mL and seeded into a 96-well plate at 90 µL/well, such that the cell density in the 96-well plate was 3.6 × 10 ^4 cells/well. The cells were incubated in a 5% CO 2 incubator at 37 °C and a saturated humidity for 6 h, followed by the addition of compounds. • 4.2 Dilution and addition of compounds: • (1) TNF-α was dissolved in PBS to obtain a 100 µg/mL stock solution and aliquoted; Z-VAD-FMK was dissolved in DMSO to obtain a 10 mM stock solution and aliquoted; BV6 was dissolved in DMSO to obtain a 10 mM stock solution and aliquoted; GSK2982772 was dissolved in DMSO to obtain a 10 mM stock solution and aliquoted. One aliquot of each stock solution was stored at -20 °C for immediate use, while the remaining aliquots were stored at - 80 °C and used within their shelf life. • (2) RPMI-1640 culture medium containing TNF-α, BV6, and Z-VAD-FMK was prepared (5 µL/per well), such that the final concentrations of TNF-α, BV6, and Z-VAD-FMK were 20 ng/mL, 2 µM, and 20 µM, respectively. • (3) Each target compound was three-fold diluted with a culture medium to 8 concentration gradients, with each concentration set in duplicate (5 µL/well). The final concentrations of each target compound were 1000.00/333.33/111.11/37.04/12.35/4.12/1.37/0.46 nM. • (4) The 96-well plate containing 90 µL of cell suspension was taken out from an incubator, and a positive control group, test compound groups, and a DMSO (5‰) control group were set. 5 µL of RPMI-1640 culture solution containing TNF-α, BV6, and Z-VAD-FMK and 5 µL of culture solution containing the test compound were added to the positive control group and the test compound groups. After compound addition, the mixtures were cultured for 18 h, followed by the CCK-8 assay. • (5) The 96-well plate was taken out, and the CCK-8 reagent was carefully added at 10 µL/well. The mixtures were incubated at 37 °C for 2-4 h, and the absorbance value was measured at a wavelength of 450 nm. • 5. Evaluation of inhibitory activity of compounds on TNF-α-induced necroptosis of U937 [formula] […]

Each structure is given as a SMILES string. Some results are limits rather than exact numbers.

`COCC#Cc1cc2c3c(c1)CCN3C(=O)C(NC(=O)c1ncn(Cc3c(F)cccc3F)n1)CC2` (centres unmarked) [III-5, 1-(2,6-difluorobenzyl)-N-(9-(3-methoxyprop-1-yn-1-yl)-4-oxo-1,2,3,4,6,7-hexahydroazepino[3,2,1-hi]indol-3-yl)-1H-1,2,4-triazole-3-carboxamide]: the EC50 in test [1] and in test [2] was less than 5 nM in each case.
Turning to `O=C(NC1CCc2cc(C#CC3CC3)cc3c2N(CC3)C1=O)c1ncn(Cc2c(F)cccc2F)n1` (centres unmarked) [III-6, N-(9-(cyclopropylethynyl)-4-oxo-1,2,3,4,6,7-hexahydroazepino[3,2,1-hi]indol-3-yl)-1-(2,6-difluorobenzyl)-1H-1,2,4-triazole-3-carboxamide], the EC50 lay within 5 to 10 nM in test [1] and 10 to 100 nM in test [2].
As to `Cn1cc(C#Cc2cc3c4c(c2)CCN4C(=O)C(NC(=O)c2ncn(Cc4ccccc4F)n2)CC3)cn1` (centres unmarked) [III-7, 1-(2-fluorobenzyl)-N-(9-((1-methyl-1H-pyrazol-4-yl)ethynyl)-4-oxo-1,2,3,4,6,7-hexahydroazepino[3,2,1-hi]indol-3-yl)-1H-1,2,4-triazole-3-carboxamide], the EC50 in test [1] was 10 to 100 nM; in test [2], less than 5 nM.
`Cn1cc(C#Cc2cc3c4c(c2)CCN4C(=O)C(NC(=O)c2ncn(Cc4ccc(F)cc4)n2)CC3)cn1` (centres unmarked) [III-8, 1-(4-fluorobenzyl)-N-(9-((1-methyl-1H-pyrazol-4-yl)ethynyl)-4-oxo-1,2,3,4,6,7-hexahydroazepino[3,2,1-hi]indol-3-yl)-1H-1,2,4-triazole-3-carboxamide]: the values for the EC50 in test [1] and in test [2] were 10 to 100 nM and 5 to 10 nM, respectively.
The like results for `Cn1cc(C#Cc2cc3c4c(c2)CCN4C(=O)C(NC(=O)c2ncn(Cc4ccc(F)cc4F)n2)CC3)cn1` (centres unmarked) [III-9, 1-(2,4-difluorobenzyl)-N-(9-((1-methyl-1H-pyrazol-4-yl)ethynyl)-4-oxo-1,2,3,4,6,7-hexahydroazepino[3,2,1-hi]indol-3-yl)-1H-1,2,4-triazole-3-carboxamide] were, in that order, less than 5 nM and less than 5 nM.
As for `Cn1cc(C#Cc2cc3c4c(c2)CCN4C(=O)C(NC(=O)c2ncn(Cc4cc(F)cc(F)c4)n2)CC3)cn1` (centres unmarked) [III-11, 1-(3,5-difluorobenzyl)-N-(9-((1-methyl-1H-pyrazol-4-yl)ethynyl)-4-oxo-1,2,3,4,6,7-hexahydroazepino[3,2,1-hi]indol-3-yl)-1H-1,2,4-triazole-3-carboxamide], the EC50 in test [1] and in test [2] was less than 5 nM in each case.
As for `Cc1ccccc1Cn1cnc(C(=O)NC2CCc3cc(C#Cc4cnn(C)c4)cc4c3N(CC4)C2=O)n1` (centres unmarked) [III-13, N-(9-((1-methyl-1H-pyrazol-4-yl)ethynyl)-4-oxo-1,2,3,4,6,7-hexahydroazepino[3,2,1-hi]indol-3-yl)-1-(2-methylbenzyl)-1H-1,2,4-triazole-3-carboxamide], the EC50 in test [1] was 5 to 10 nM; in test [2], less than 5 nM.
The corresponding values for `Cc1ccc(Cn2cnc(C(=O)NC3CCc4cc(C#Cc5cnn(C)c5)cc5c4N(CC5)C3=O)n2)cc1` (centres unmarked) [III-14, N-(9-((1-methyl-1H-pyrazol-4-yl)ethynyl)-4-oxo-1,2,3,4,6,7-hexahydroazepino[3,2,1-hi]indol-3-yl)-1-(4-methylbenzyl)-1H-1,2,4-triazole-3-carboxamide] are 5 to 10 nM and less than 5 nM.
The like results for `O=C(NC1CCc2cc(C#CC3CCNCC3)cc3c2N(CC3)C1=O)c1ncn(Cc2c(F)cccc2F)n1` (centres unmarked) [III-15, 1-(2,6-difluorobenzyl)-N-(4-oxo-9-(piperidin-4-ylethynyl)-1,2,3,4,6,7-hexahydroazepino[3,2,1-hi]indol-3-yl)-1H-1,2,4-triazole-3-carboxamide] were, in that order, less than 5 nM and less than 5 nM.
In the case of `CC(C)(C)OC(=O)N1CCC(C#Cc2cc3c4c(c2)CCN4C(=O)C(NC(=O)c2ncn(Cc4c(F)cccc4F)n2)CC3)CC1` (centres unmarked) [III-16, tert-butyl 4-((3-(1-(2,6-difluorobenzyl)-1H-1,2,4-triazole-3-carboxamido)-4-oxo-1,2,3,4,6,7-hexahydroazepino[3,2,1-hi]indol-9-yl)ethynyl)piperidine-1-carboxylate], the values for the EC50 in test [1] and in test [2] were 10 to 100 nM and less than 5 nM, respectively.
